Molecular target: T1, human P2X2/3 receptors (Homo sapiens, UniProt P56373+Q9UBL9)
T1 construct: expressed in transfected cells
T1 sequence (Q9UBL9 1-404 isoform Q9UBL9-2): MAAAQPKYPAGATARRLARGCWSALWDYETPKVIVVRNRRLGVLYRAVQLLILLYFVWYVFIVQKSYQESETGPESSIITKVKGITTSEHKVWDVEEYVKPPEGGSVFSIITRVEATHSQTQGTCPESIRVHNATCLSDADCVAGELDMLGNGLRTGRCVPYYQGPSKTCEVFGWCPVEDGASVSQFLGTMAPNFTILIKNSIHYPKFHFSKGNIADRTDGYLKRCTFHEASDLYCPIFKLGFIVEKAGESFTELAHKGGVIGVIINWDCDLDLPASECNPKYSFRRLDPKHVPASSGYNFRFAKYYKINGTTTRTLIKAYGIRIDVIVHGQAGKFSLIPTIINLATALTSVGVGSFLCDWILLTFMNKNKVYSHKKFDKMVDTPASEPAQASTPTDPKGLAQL
T1 sequence (P56373 1-397): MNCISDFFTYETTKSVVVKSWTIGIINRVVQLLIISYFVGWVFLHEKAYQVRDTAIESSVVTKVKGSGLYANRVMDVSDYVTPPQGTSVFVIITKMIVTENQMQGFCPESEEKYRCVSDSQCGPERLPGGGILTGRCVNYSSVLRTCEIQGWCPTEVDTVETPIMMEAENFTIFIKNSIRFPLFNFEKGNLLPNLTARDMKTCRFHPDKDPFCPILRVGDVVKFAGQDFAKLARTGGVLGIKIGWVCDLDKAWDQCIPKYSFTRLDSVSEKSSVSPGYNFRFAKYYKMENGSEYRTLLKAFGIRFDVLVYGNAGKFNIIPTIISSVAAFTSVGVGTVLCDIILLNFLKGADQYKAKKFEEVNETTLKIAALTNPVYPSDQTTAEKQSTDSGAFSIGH
Assay: Confocal binding versus activation of fATP at hP2X2/3 in HEK293 cells
Details: hP2X2/3, activation rescaled to value at maximal concentration
Procedure: For the detection of ligand binding, the cells were incubated with the fluorescent ATP derivatives in chambered coverslips or 96-well plates with cover-slip bottoms. The surface was coated with 0.1 mg/mL of poly-L-lysine for 12 h and washed twice with PBS before seeding the cells at […] density. The cells were suspended 24 h after induction and allowed to settle for two hours before being utilised for the measurements. The solutions were freshly prepared before each experiment. The bulk solution was counter-stained with the red fluorescence dye Dy647. Each confocal voxel covering the cell membrane contained both the signal from the bound ligand and the signal from ligands in the bulk solution. This additional signal, e.g., the fraction of the bulk solution inside a voxel, varied from pixel to pixel and can hardly be described theoretically.
Because the difference in image noise contributed within both the bulk solution and the cells, the cell–bulk interfaces were selected using a Sobel operator [31] and appropriate filters/thresholds on the reference fluorophore signal. Note that only cell–bulk boundaries and not cell–cell boundaries were included in this approach. The method was described in detail previously.
The concentration–binding relationships were normalised to their maximum relative fluorescence intensities at a saturating fATP or α,βMe-fATP concentration. […]

Concentration at which normalised concentration-activation and concentration-binding curves intersect: approximately 0.5 µM
SMILES: COCC[N+]1=C(C=CC=C2N(CCCCCC(=O)NCCCCCCSc3nc(N)c4ncn(C5OC(COP(=O)(O)OP(=O)(O)OP(=O)(O)O)C(O)C5O)c4n3)c3ccc(S(=O)(=O)O)cc3C2(C)C)C(C)(C)c2cc(S(=O)(=O)[O-])ccc21 (stereo not shown) [fATP, 2-[DY-547P1]-AHT-ATP]

— paper PMC11352409, “Subtype-Specific Ligand Binding and Activation Gating in Homomeric and Heteromeric P2X Receptors” (Biomolecules, 2024)
